The text below walks through data of patent US12070445B2, “System and assay for monitoring production/release of membrane-lytic toxins in bacteria and compounds for modulating same” (priority 2021, dated 2024).

Entries after “also recorded” stand apart in the source; their conditions may differ. Where a SMILES comes first, the peptide text is derived from it. Bridges are numbered along the chain shown (N, C = ends).

Data set [1] deals with agr. Briefly: agr YFP transcriptional reporter assay (S. aureus AH1677 with pDB59). Type of data set: cell-based. The method, then:
Bacterial strains and culture. All bacteria were grown at 37° C. with 200 rpm shaking unless otherwise specified. S. aureus and P. aeruginosa were grown in BHI medium and LB medium, respectively. S. aureus AH1677 (with an agr-YFP reporter plasmid) and P. aeruginosa PAO1-PGSC (with a plasI-LVAgfp reporter plasmid) were used as QS transcriptional reporters and grown with 10 μg/mL chloramphenicol and 300 μg/mL carbenicillin, respectively. All other strains were grown without supplemental antibiotic. S. aureus RN6390b and P. aeruginosa PAO1-PGSC were used as WT strains in vesicle lysis experiments, while S. aureus RN9222 and P. aeruginosa PAO-JG35 were used as QS mutants. RN9222 was grown without antibiotic as it was not used as a reporter strain (i.e., it served only as QS mutant).
High-throughput screening and follow-up analysis protocols. Test compounds and positive control 1 were delivered in 2.5 nL aliquots of DMSO with an Echo 550 liquid handler (LabCyte Inc.) into black 384-well microtiter plates (Corning). All test compounds were tested at 10 μM; positive control 1 was tested at 250 nM. DMSO was used as a negative control. Overnight cultures (2 mL) of WT S. aureus (RN6390b) were grown at 37° C. with shaking at 200 rpm. These cultures were diluted 1:500 (v/v) in fresh BHI medium, at which point vesicle solutions were added to a final concentration of 1 mM phospholipid (as determined by ^31P NMR analyses). This vesicle-cell mixture was then added to the 384-well microtiter plates with a Multidrop 384 liquid-dispensing robot (Thermo Scientific) for a total volume of 50 μL per well. Plates were incubated statically for ˜24 hr at 37° C., at which point fluorescence (excitation 483, emission 530) and OD600 (absorbance at 600 nm) measurements were made using a CLARIOstarR Plus microtiter plate reader (BMG Labtech) running MARS data analysis software. Scatter plots were generated using the Collaborative Drug Discovery Vault informatics platform. The dose-response experiment using the vesicle lysis assay was performed in a 384-well plate in technical duplicate with compound concentrations of 0.1, 0.25, 0.5, 1, 2.5, 5, 10, and 20 μM. Dose-response curves were generated using variable slope (4 parameter) non-linear regression analysis for compound inhibition using GraphPad Prism software (v. 9). Analysis of the QS modulatory activity of the HTS hits and 6 (savirin) was performed using the S. aureus YFP transcriptional reporter strain. HTS hits were purchased directly from Life Chemicals, Inc. DMSO stock solutions (10 mM) of each compound were prepared and stored at −20° C. Serial dilutions (1:3) were prepared from the stock solutions in DMSO, and 2 μL aliquots of the resulting dilutions were added to the wells of black 96-well microtiter plates (Corning). Overnight cultures of the S. aureus reporter strain (2 mL) were grown at 37° C. with shaking at 200 rpm. Cultures were diluted 1:50 (v/v) into fresh BHI medium, and 198 μL of this diluted culture were added to each well containing compound, for a total volume of 200 μL per well. All plates contained a vehicle control consisting of 2 μL of DMSO and 198 μL of culture and a media control consisting of 200 μL BHI. Plates were incubated for ˜24 hours at 37° C. with shaking at 200 rpm. Fluorescence (excitation 510, emission 544) and OD600 measurements were acquired with a PerkinElmer EnVision microtiter plate reader running Envision Manager software. Background fluorescence from BHI control was subtracted from raw fluorescence reads, OD600 corrected, and finally normalized to vehicle control. Dose-response curves and IC50 values were generated using 3-parameter non-linear regression analysis for compound inhibition using GraphPad Prism software (v. 9). All compounds were tested in technical triplicate with at least 3 biological replicates.
(In a reporter assay the amount or activity of a reporter protein is the signal.)

Data set [2] deals with S. aureus. Nature of the data set: S. aureus growth (OD600). Type of data set: cell-based. The method, then: (§1) Microtiter plate vesicle lysis assays. Portions of media (2 or 10 mL) were inoculated with individual bacterial colonies and allowed to shake overnight. From these overnight cultures, subcultures were prepared by diluting the cultures 1:50 (v/v) in fresh BHI for S. aureus or 1:100 (v/v) in fresh LB for P. aeruginosa. An aliquot of each subculture (178 μL) was added to 20 μL of vesicle suspension and 2 μL of compound solution (dissolved in DMSO at 100× working concentration) in a clear-bottomed, black 96-well microtiter plate (Corning 3904). For controls, DMSO (vehicle) or Triton X-100 (1% final concentration) was substituted for compound. Plate covers were coated with an aqueous solution of 0.05% Triton X-100 and 20% ethanol (Brewster, 2003) to prevent the accumulation of condensation. Plates were incubated in a Biotek Synergy 2 microplate reader running Gen5 1.05 software at 37° C. with shaking at the high-speed setting. Fluorescence (excitation 500 nm, emission 540 nm) and OD600 (absorbance at 600 nm) measurements were recorded every 15 minutes for 12 hours. All experiments were performed in technical triplicate in a single microtiter plate. Biological triplicates were then obtained over three days. GraphPad Prism software (v. 9) was used to generate curves and calculate standard error.
High-throughput screening and follow-up analysis protocols. Test compounds and positive control 1 were delivered in 2.5 nL aliquots of DMSO with an Echo 550 liquid handler (LabCyte Inc.) into black 384-well microtiter plates (Corning). All test compounds were tested at 10 μM; positive control 1 was tested at 250 nM. DMSO was used as a negative control. Overnight cultures (2 mL) of WT S. aureus (RN6390b) were grown at 37° C. with shaking at 200 rpm. These cultures were diluted 1:500 (v/v) in fresh BHI medium, at which point vesicle solutions were added to a final concentration of 1 mM phospholipid (as determined by ^31P NMR analyses). This vesicle-cell mixture was then added to the 384-well microtiter plates with a Multidrop 384 liquid-dispensing robot (Thermo Scientific) for a total volume of 50 μL per well. Plates were incubated statically for ˜24 hr at 37° C., at which point fluorescence (excitation 483, emission 530) and OD600 (absorbance at 600 nm) measurements were made using a CLARIOstarR Plus microtiter plate reader (BMG Labtech) running MARS data analysis software. Scatter plots were generated using the Collaborative Drug Discovery Vault informatics platform. […] Fluorescence (excitation 510, emission 544) and OD600 measurements were acquired with a PerkinElmer EnVision microtiter plate reader running Envision Manager software. […]

Data set [3] in a line: Solubility in DMSO and aqueous solutions.
In data set [4] the test system is WT S. aureus (RN6390b). Briefly: Microtiter plate (96-well) vesicle lysis assay with WT S. aureus. It is filed as cell-based. The method, then: (§2) Compound handling and preparation. OdDHL and BHL (Hodgkinson et al., 2011), S. aureus AIP and peptide derivatives 1-5 (Tal-Gan et al., 2013, Tal-Gan et al., 2016, Vasquez and Blackwell, 2019), and compounds 7-9 (Welsh and Blackwell, 2016a, Boursier et al., 2018, Manson et al., 2020) were synthesized using previously described methods. PQS and compound 6 were purchased from Millipore Sigma and AK Scientific respectively. Compounds were stored dry at −20° C. until needed and then dissolved in DMSO. DMSO stock solutions were prepared at concentrations that varied with compound potency and apparent solubility. Final in-well compound concentrations for 96-well vesicle lysis assays, unless noted otherwise, were: 10 μM for AIP, OdDHL, and PQS; 1 mM for BHL; 100 nM for 1-4; 10 μM for 5; 20 μM for 6; 100 μM for 7 and 8; and 200 μM for 9.
(§3) Production of phospholipid vesicles with encapsulated calcein. Large unilamellar vesicles (LUVs) were produced by adapting a freeze-thaw and vesicle extrusion procedure (Mayer et al., 1986). Briefly, stock solutions of phospholipids (DOPC, DPPC, DPPE, or cholesterol) in chloroform were mixed to the desired lipid compositions (70 mol % DOPC/30 mol % cholesterol for S. aureus vesicles or 68 mol % DPPC, 30 mol % cholesterol, 2 mol % DPPE for P. aeruginosa vesicles), and the chloroform was removed using an N2 stream or rotary evaporation followed by drying for at least one hour under vacuum. Self-quenching solutions of calcein were prepared by combining calcein and PBS or a specially prepared calcein buffer (1 mM EDTA, 10 mM Trisbase, and 100 mM NaCl; pH 8) to a calcein concentration of […]. The resulting solutions were titrated with 10 M aqueous NaOH until all calcein was dissolved and the solution reached pH 7.4 or pH 8 for PBS and the calcein buffer, respectively. The resulting calcein solutions were added to the dried phospholipid films (PBS for S. aureus formulations and the calcein buffer for the P. aeruginosa formulations) for a final lipid concentration of 5 mg/mL. The resulting lipid solutions were vortexed vigorously and briefly sonicated in a bath sonicator to form a turbid vesicle suspension. The vesicle suspensions were then freeze-thawed five times by alternately immersing them into an iPrOH/dry ice bath and a warm water bath (˜60° C.). Vesicles prepared for continuous time-course experiments were passed at least 5 times through a 100 nm polycarbonate filter using a Mini-prep extruder. Vesicles prepared for the high-throughput screen were passed through the filter 3 times. The resulting vesicles were then separated from external, unloaded calcein using a hand-packed Sephadex-G50 size exclusion chromatography column. The concentration of phospholipid in the solution was quantified using ^31P NMR (per the above protocol), and the phospholipid concentration was adjusted to 2 mM for unsaturated lipid solutions and 1 mM for saturated lipid solutions in their respective buffers. The resulting vesicles were characterized by dynamic light scattering and found to have a hydrodynamic diameter of ˜150 nm (FIGS. 3A-3C), which agrees with previous reports describing vesicle production using a similar method (Lapinski et al., 2007).
Microtiter plate vesicle lysis assays. Portions of media (2 or 10 mL) were inoculated with individual bacterial colonies and allowed to shake overnight. From these overnight cultures, subcultures were prepared by diluting the cultures 1:50 (v/v) in fresh BHI for S. aureus or 1:100 (v/v) in fresh LB for P. aeruginosa. An aliquot of each subculture (178 μL) was added to 20 μL of vesicle suspension and 2 μL of compound solution (dissolved in DMSO at 100× working concentration) in a clear-bottomed, black 96-well microtiter plate (Corning 3904). For controls, DMSO (vehicle) or Triton X-100 (1% final concentration) was substituted for compound. […]

Data set [5] relates to WT P. aeruginosa (PAO1-PGSC). Nature of the data set: Microtiter plate (96-well) vesicle lysis assay with WT P. aeruginosa. Type of data set: cell-based. The method, then:
as §2, §3
Microtiter plate vesicle lysis assays. Portions of media (2 or 10 mL) were inoculated with individual bacterial colonies and allowed to shake overnight. […]

Data set [6] concerns P. aeruginosa. Briefly: P. aeruginosa growth (OD600). It is filed as cell-based. As to conditions: P. aeruginosa WT and QS mutant with vesicles, 12 hr. The method, then: as §1

Turning to `O=C(Nc1nc2c(s1)CN(C(=O)Nc1cccc(Cl)c1)CC2)c1ccsc1` [Compound 11, N-(3-chlorophenyl)-2-(thiophene-3-carboxamido)-6,7-dihydrothiazolo[5,4-c]pyridine-5(4H)-carboxamide], the “agr inhibition in agr transcriptional reporter assay” value in data set [1] (S. aureus agr YFP reporter) is on record as “near maximal agr inhibitors”. Moreover, the IC50 in data set [1] (Staphylococcus aureus, 24 h, read-out: IC50 in the agr reporter assay) worked out at 700 nM. In data set [2] (S. aureus, HTS hits), the “inhibition of cellular growth” value is recorded as “do not inhibit cellular growth”. For the same molecule, the “solubility in DMSO and aqueous solutions” value in data set [3] is “readily soluble”.

`CC[C@H](C)[C@H](N)C(=O)N[C@@H](CC(N)=O)C(=O)N[C@H]1CSC(=O)[C@H](CC(C)C)NC(=O)[C@H](CC(C)C)NC(=O)[C@H](Cc2ccccc2)NC(=O)[C@H](C)NC1=O` [Compound 1, AIP III D4A] (H-INCAFLL; thioester 3-C): in data set [4] (100 nM 1, 10 μM 5, 20 μM 6, 10 μM AIP), the “effect on vesicle lysis (calcein fluorescence over 12 hr)” value was “wholly abrogated vesicle lysis; also recorded: repress vesicle lysis”. In data set [4] (3-fold dilutions starting at 100 nM), the “effect of increasing concentration on onset of calcein leakage” value was “increases in the times required for the onset of calcein leakage”. Moreover, in data set [4] (all compounds at 100 nM, 12 hr), the “calcein leakage with agr inhibitors at equivalent concentration” value is listed as “completely prevent calcein leakage”. In addition, the “impact on cell growth” value in data set [2] (S. aureus WT and QS mutant with vesicles, 12 hr) was “minimal impact on cell growth”.

Turning to `CCCCCCCCCC(=O)CC(=O)Nc1ccccc1` [Compound 7, V-06-018], in data set [5] (100 μM 7 and 8), the “delay of vesicle lysis relative to vehicle controls” value is listed as “approximately two”. Further, the “delay of the onset of vesicle lysis” value in data set [5] (100 μM 7 and 8, FIG. 7C) was “approximately 2 hr”. In addition, the “effect on bacterial growth” value in data set [6] is “inhibit growth mildly at later time points”.

By IC50 is commonly meant the midpoint of a concentration-inhibition curve.
